# Starred links: 1 amine or outer side, 2 acyl side, 3 side chain; linkers in the order of their positions; H or OH if unused. Positions of bridges follow the written chain, without caps; N, C: chain ends. Non-standard residues stand in square brackets, D forms with d. Residues, ends and D or L forms follow the SMILES beside them. Chains are numbered I, II in the order given. N(4-MeOBn)Gly = COc1ccc(CNCC(=O)O)cc1; N((CH2)3OiPr)Gly = CC(C)OCCCNCC(=O)O; X1 = CC(c1ccccc1)N(CC(=O)[*:2])[*:1]; NAllylGly = C=CCNCC(=O)O; Nleu = CC(C)CNCC(=O)O; Nme = COCCNCC(=O)O
# Legend:
# [1] = system: HEK293T cells; assay: WST-1 cell viability assay; format: cell-based, human; conditions: various concentrations, 48 hours
# Procedure: (§1) MCF-7 and HEK293T cells were treated with various concentrations of ACE2P1D1 (FIG. 12A) or ACE2P2D1 (FIG. 12B) for 48 hours. Cell viability was measured by a WST-1 assay.
# (§2) To assess whether the peptoids are toxic to human cells, Applicant performed the WST-1 assay.
# [2] = system: MCF-7 cells; assay: WST-1 cell viability assay; format: cell-based, human; conditions: various concentrations, 48 hours
# Procedure: as §1, §2
# [3] = system: SARS-CoV-2 pseudovirus; format: cell-based, human H1299 cells
# [4] = molecular target: T1, ACE2 in Caco-2 cells (Homo sapiens, UniProt Q9BYF1); assay: ACE2 enzymatic activity in cell homogenates; format: biochemical; conditions: Caco-2 cell homogenates, captopril 10 µM
# T1 construct: endogenous in cells; host or cells: Caco-2 cells
# Procedure: (§3) Assays were run at 37° C. in ACE2 reaction buffer containing 10 µM Mca-YVADAPK(Dnp), in a total volume of 100 µl. Fluorescence emission at 405 nm, after excitation at 320 nm, was measured in a microplate reader. Cleavage of the substrate Mca-YVADAPK(Dnp) by ACE2 enzyme produces fluorescence. The strength of the fluorescence indicates the ACE2 enzymatic activity.
# (§4) To measure ACE2 activity in cells, cell homogenates were used. To prevent hydrolysis of the substrate by a range of nonmetalloprotease enzymes from the cells, cOmplete™ Protease Inhibitor Cocktail (Roche/Sigma) were added to the cell homogenates. To eliminate the effects of ACE on the substrate, ACE inhibitor captopril (10 µM) was added to the assay.
# [5] = molecular target: T2, ACE2 protein (Homo sapiens, UniProt Q9BYF1); assay: ACE2 enzymatic activity, Mca-YVADAPK(Dnp) fluorescence assay; format: biochemical; conditions: up to 10 µM peptoid; 10 µM Mca-YVADAPK(Dnp), 37° C.
# Procedure: as §3, with “C. in an ACE2 reaction” for “C. in ACE2 reaction”
# ACE2 is an enzyme that lowers blood pressure by catalyzing the hydrolysis of angiotensin II. […] Applicant assessed the effects of ACE2P1D1 and ACE2P2D1 on ACE2 enzyme activity on recombinant ACE2 protein.
# [6] = molecular target: T3, ACE2 protein levels on cell surface (Homo sapiens, UniProt Q9BYF1); assay: ACE2 surface expression by flow cytometry; format: cell-based; conditions: H1299 cells, 48 hours
# T3 construct: endogenous in cells; host or cells: H1299 human lung cancer cells
# Procedure: H1299 cells were treated with ACE2P1D1 or ACE2P2D1 for 48 hours. ACE2 surface expression was determined by flow cytometry analysis.
# Next, Applicant determined whether or not the peptoids in this Example can decrease ACE2 levels on a cell surface.
# [7] = molecular target: T4, ACE2 in MCF-7 cells (Homo sapiens, UniProt Q9BYF1); assay: ACE2 enzymatic activity in cell homogenates; format: biochemical; conditions: MCF-7 cell homogenates, captopril 10 µM
# T4 construct: endogenous in cells; host or cells: MCF-7 cells
# Procedure: as §3, with “C. in an ACE2 reaction” for “C. in ACE2 reaction”
# as §4
# [8] = molecular target: T5, ACE2 in human H1299 cells (Homo sapiens, UniProt Q9BYF1); assay: ACE2 enzymatic activity in cell homogenates; format: biochemical; conditions: captopril 10 µM
# T5 construct: endogenous in cells; host or cells: H1299 human lung cancer cells
# Procedure: as §3, with “C. in an ACE2 reaction” for “C. in ACE2 reaction”
# as §4
# [9] = molecular target: T2, ACE2 protein; assay: ACE2 expression by western blot; format: cell-based; design: endogenous in cells; host or cells: MCF-7 and Caco-2 cells; conditions: MCF-7 and Caco-2 cells, various doses, 48 hours
# Procedure: MCF-7 and Caco-2 cells were treated with various concentrations of ACE2P1D1 or ACE2P2D1 for 48 hours. ACE2 expression was determined by western blot analysis.
# As ACE2 is important in blood pressure regulation, Applicant assessed whether the peptoids can decrease ACE2 expression in human cells.
# [10] = molecular target: SARS-CoV-2 spike protein binding to ACE2 (Homo sapiens, UniProt Q9BYF1); assay: GST pull-down assay of spike protein-ACE2 interaction; conditions: premixed with ACE2 for 30 minutes; ACE2 detected by western blot
# [11] = molecular target: T2, ACE2 protein; assay: Protein Thermal Shift assay; format: binding; conditions: 10 µM peptoid
# Procedure: FIGS. 8A-D illustrate that ACE2P1 and ACE2P2 interact directly with ACE2. FIG. 8A provides experimental results from an in vitro pulldown assay for ACE2P1 and ACE2P2. […] The thermal shift assay was carried out on a QuantStudio 3 Real-Time PCR System.
# Next, Applicant created the dimers of ACE2P1 and ACE2P2 (FIG. 8B) and performed thermal shift assays using recombinant ACE2 proteins. Thermal shift assay is routinely used in drug discovery to identify protein-ligand interactions. The Applied Biosystems™ Protein Thermal Shift™ assay measures protein thermal stability using a fluorescent protein-binding dye. […] The protein is mixed with the dye and heated. As it unfolds or melts, hydrophobic parts of the protein are exposed and bind to the dye, resulting in fluorescence emission detected by the qPCR system. Binding of a ligand to the protein changes the stability of the protein, resulting in a change in fluorescence intensity.
# [12] = system: ACE2 expressing MCF-7 cells; assay: on-bead cell binding of resynthesized peptoids (OBTC two-color); format: cell-based, human; conditions: peptoid on tentagel bead; ACE2+ red stained, ACE2- green stained MCF-7 cells
# Procedure: FIG. 6 provides experimental results illustrating that on-bead peptoids ACE2P1 and ACE2P2 bind to human ACE2 positive cells. The compounds ACE2P1 and ACE2P2 were resynthesized on the tentagel bead and incubated with ACE2 expressing MCF-7 cells (red stained) and ACE2 negative MCF-7 cells (green stained) individually as well as 1:1 mixture of red and green cells.
# Applicant resynthesized the identified ACE2P1 and ACE2P2 peptoids on-bead and introduced human ACE2^+ (red stained) and ACE2^- (green stained) MCF-7 cells separately to these two peptoid carrying beads.
# [13] = molecular target: T2, ACE2 protein; assay: in vitro pulldown assay with peptoid conjugated beads; format: binding; conditions: 4° C. overnight, western blotting
# Procedure: To confirm a direct interaction between the peptoids and ACE2, Applicant performed in vitro pulldown assays. Recombinant human ACE2 protein was incubated with ACE2P1 or ACE2P2 conjugated beads at 4° C. overnight. The beads were then washed with PBS buffer for 3 times, and the binding proteins were eluted with 1% SDS. The yielded lysates were then applied onto 10% SDS-PAGE gel and subjected to western blotting (FIG. 8A).
# SARS-CoV-2 spike protein binding to ACE2, sequence (Q9BYF1 18-740): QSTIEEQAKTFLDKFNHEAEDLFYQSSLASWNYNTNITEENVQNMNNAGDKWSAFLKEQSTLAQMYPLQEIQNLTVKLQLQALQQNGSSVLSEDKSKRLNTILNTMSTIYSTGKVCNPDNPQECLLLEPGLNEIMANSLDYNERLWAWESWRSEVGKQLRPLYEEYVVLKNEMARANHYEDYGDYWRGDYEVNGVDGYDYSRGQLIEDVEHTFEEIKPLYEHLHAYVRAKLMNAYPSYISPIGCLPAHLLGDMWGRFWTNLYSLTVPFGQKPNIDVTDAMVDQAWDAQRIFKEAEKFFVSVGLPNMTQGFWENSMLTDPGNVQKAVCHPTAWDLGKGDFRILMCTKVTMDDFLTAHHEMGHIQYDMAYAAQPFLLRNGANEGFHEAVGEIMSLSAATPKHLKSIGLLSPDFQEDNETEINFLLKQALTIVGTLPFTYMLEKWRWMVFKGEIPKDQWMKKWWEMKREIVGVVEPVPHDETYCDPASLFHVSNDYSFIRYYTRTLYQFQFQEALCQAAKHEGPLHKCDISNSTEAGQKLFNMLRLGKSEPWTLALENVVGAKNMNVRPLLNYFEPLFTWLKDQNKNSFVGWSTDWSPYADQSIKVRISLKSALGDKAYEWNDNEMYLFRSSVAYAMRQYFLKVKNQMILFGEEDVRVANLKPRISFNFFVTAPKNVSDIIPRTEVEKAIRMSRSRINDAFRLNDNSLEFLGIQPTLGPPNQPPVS
# T2 sequence (Q9BYF1 18-805): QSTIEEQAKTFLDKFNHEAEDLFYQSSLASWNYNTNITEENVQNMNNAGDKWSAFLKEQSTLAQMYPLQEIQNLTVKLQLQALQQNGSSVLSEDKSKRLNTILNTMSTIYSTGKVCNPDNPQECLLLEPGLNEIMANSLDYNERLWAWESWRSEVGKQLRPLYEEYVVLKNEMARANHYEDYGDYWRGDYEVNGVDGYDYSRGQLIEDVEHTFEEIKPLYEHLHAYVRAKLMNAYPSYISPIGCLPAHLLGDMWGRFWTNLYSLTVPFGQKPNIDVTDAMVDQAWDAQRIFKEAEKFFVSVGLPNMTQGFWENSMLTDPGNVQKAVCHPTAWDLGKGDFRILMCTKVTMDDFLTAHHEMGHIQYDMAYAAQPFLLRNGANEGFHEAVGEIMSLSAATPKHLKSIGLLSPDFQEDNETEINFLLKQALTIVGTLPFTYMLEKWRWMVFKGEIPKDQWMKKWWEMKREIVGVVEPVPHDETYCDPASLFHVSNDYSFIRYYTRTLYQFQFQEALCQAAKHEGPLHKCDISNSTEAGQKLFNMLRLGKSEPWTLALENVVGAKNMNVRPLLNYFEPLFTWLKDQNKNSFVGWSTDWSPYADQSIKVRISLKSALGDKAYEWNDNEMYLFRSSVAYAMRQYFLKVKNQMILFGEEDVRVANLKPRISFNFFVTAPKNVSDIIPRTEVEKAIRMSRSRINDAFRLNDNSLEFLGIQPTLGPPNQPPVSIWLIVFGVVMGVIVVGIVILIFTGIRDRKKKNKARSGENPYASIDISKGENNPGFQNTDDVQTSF
# T1 sequence (Q9BYF1 18-805): as above
# T5 sequence (Q9BYF1 18-805): as above
# T4 sequence (Q9BYF1 18-805): as above
# T3 sequence (Q9BYF1 18-805): as above
SMILES,cell viability [1],cell viability [2],SARS-CoV-2 pseudovirus infection [3],enzymatic activity of ACE2 [4],ACE2 enzyme activity [5],ACE2 protein levels on cell surface [6],enzymatic activity of ACE2 [7],enzymatic activity of ACE2 [8],expression levels of ACE2 protein [9],binding of spike protein to ACE2 [10],change in protein melting temperature [11],binding of peptoid beads to ACE2+ versus ACE2- MCF-7 cells [12],pull down of ACE2 protein [13]
C=CCN(CC(=O)N(CC(=O)NC(CCCCN)C(=O)NC(CCSC)C(=O)NCCCCC(NC(=O)C(CCSC)NC(=O)C(CCCCN)NC(=O)CN(C(=O)CN(CC=C)C(=O)CN(Cc1ccc(OC)cc1)C(=O)CN(C(=O)CN(CCOC)C(=O)CNCC(C)C)C(C)c1ccccc1)C(C)c1ccccc1)C(N)=O)C(C)c1ccccc1)C(=O)CN(Cc1ccc(OC)cc1)C(=O)CN(C(=O)CN(CCOC)C(=O)CNCC(C)C)C(C)c1ccccc1 (stereo not shown) [ACE2P1D1] (I: H-[Nleu][Nme][X1][N(4-MeOBn)Gly][NAllylGly][X1]KMK-NH2 / II: H-[Nleu][Nme][X1][N(4-MeOBn)Gly][NAllylGly][X1]KM; amide I:9-II:C; configuration not given here),no effects on the viability,no effects on the viability,effective in inhibiting SARS-CoV-2 pseudovirus infection,did not affect the enzymatic activity of ACE2,no effects on ACE2 activity,did not decrease the ACE2 protein levels on cell surface,did not affect the enzymatic activity of ACE2,did not affect the enzymatic activity of ACE2,did not decrease the expression levels of ACE2 protein,prevented the binding of spike protein to ACE2,increase in protein melting temperature,–,–
C=CCN(CC(=O)N(CC(=O)NC(CCCCN)C(=O)NC(CCSC)C(N)=O)C(C)c1ccccc1)C(=O)CN(Cc1ccc(OC)cc1)C(=O)CN(C(=O)CN(CCOC)C(=O)CNCC(C)C)C(C)c1ccccc1 (stereo not shown) [ACE2P1] (H-[Nleu][Nme][X1][N(4-MeOBn)Gly][NAllylGly][X1]KM-NH2; configuration not given here),–,–,–,–,–,–,–,–,–,increased the binding of spike protein to ACE2,–,bound only to red stained ACE2^+ cells,able to pull down the ACE2 protein
COCCN(CC(=O)NC(CCCCN)C(=O)NC(CCSC)C(=O)NCCCCC(NC(=O)C(CCSC)NC(=O)C(CCCCN)NC(=O)CN(CCOC)C(=O)CN(CC(C)C)C(=O)CN(CC(C)C)C(=O)CN(CCCOC(C)C)C(=O)CN(Cc1ccc(OC)cc1)C(=O)CNCc1ccc(OC)cc1)C(N)=O)C(=O)CN(CC(C)C)C(=O)CN(CC(C)C)C(=O)CN(CCCOC(C)C)C(=O)CN(Cc1ccc(OC)cc1)C(=O)CNCc1ccc(OC)cc1 (stereo not shown) [ACE2P2D1] (I: H-[N(4-MeOBn)Gly][N(4-MeOBn)Gly][N((CH2)3OiPr)Gly][Nleu][Nleu][Nme]KMK-NH2 / II: H-[N(4-MeOBn)Gly][N(4-MeOBn)Gly][N((CH2)3OiPr)Gly][Nleu][Nleu][Nme]KM; amide I:9-II:C; configuration not given here),no effects on the viability,no effects on the viability,effective in inhibiting SARS-CoV-2 pseudovirus infection,did not affect the enzymatic activity of ACE2,no effects on ACE2 activity,did not decrease the ACE2 protein levels on cell surface,did not affect the enzymatic activity of ACE2,did not affect the enzymatic activity of ACE2,did not decrease the expression levels of ACE2 protein,prevented the binding of spike protein to ACE2,increase in protein melting temperature,–,–
COCCN(CC(=O)NC(CCCCN)C(=O)NC(CCSC)C(N)=O)C(=O)CN(CC(C)C)C(=O)CN(CC(C)C)C(=O)CN(CCCOC(C)C)C(=O)CN(Cc1ccc(OC)cc1)C(=O)CNCc1ccc(OC)cc1 (stereo not shown) [ACE2P2] (H-[N(4-MeOBn)Gly][N(4-MeOBn)Gly][N((CH2)3OiPr)Gly][Nleu][Nleu][Nme]KM-NH2; configuration not given here),–,–,–,–,–,–,–,–,–,increased the binding of spike protein to ACE2,–,bound only to red stained ACE2^+ cells,able to pull down the ACE2 protein

# From patent US20230331777A1, “NOVEL PEPTOID COMPOUNDS THAT BIND TO CELL RECEPTOR ACE2 AND PREVENT VIRUS ENTRY INTO CELLS” (priority 2020, published 2023)
